Results on 27 molecules are retold here after patent publication US20230312587A1, “PTERIDINONE COMPOUNDS AND USES THEREOF” (Vertex Pharmaceutical Incorporated, priority 2018, published 2023).

The subject of this experiment is β-catenin-TCF-mediated reporter transcription activity in Colo 205 cells. In words: Colo 205 reporter assay (TCF/LEF luciferase). The settings on record: Colo 205 TCF/LEF luciferase reporter, five hours after addition of compound, read-out: TCF reporter Colo205 IC50. It counts as cell-based. The method, boiled down:
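Luciferase signal from a TCF/LEF-driven reporter, stably integrated in Colo 205 colon cancer cells, was measured 5 h after compound addition.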

Molecules are shown by their SMILES. Like-named read-outs stand apart in the source and are kept apart here.

Usually IC50 stands for the concentration needed to halve the response being measured. `Cc1nc(N[C@H]2C[C@@H](N(C)c3cnc(C(F)(F)F)cn3)C2)nc2c1NC(=O)[C@H](C(C)C)N2C` [Compound 652, (S)-7-isopropyl-4,8-dimethyl-2-((cis-3-(methyl(5-(trifluoromethyl)pyrazin-2-yl)amino)cyclobutyl)amino)-7,8-dihydropteridin-6(5H)-one]: under “Homo sapiens, COLO 205, 5 h”, the IC50 was in the range of 300 to 1000 nM. Regarding `Cc1nc(N[C@H]2C[C@@H](N(C)c3cnc(C(F)(F)F)cn3)C2)nc2c1NC(=O)[C@H](C)N2C` [Compound 653, (S)-4,7,8-trimethyl-2-((cis-3-(methyl(5-(trifluoromethyl)pyrazin-2-yl)amino)cyclobutyl)amino)-7,8-dihydropteridin-6(5H)-one], the IC50 (Homo sapiens, COLO 205, 5 h) is ≥ 5000 nM. For `Cc1nc(N[C@H]2C[C@H](N(C)c3cnc(C(F)(F)F)cn3)C2)nc2c1NC(=O)[C@H](C(C)C)N2C` [Compound 655, (7S)-7-isopropyl-4,8-dimethyl-2-((trans-3-(methyl(5-(trifluoromethyl)pyrazin-2-yl)amino)cyclobutyl)amino)-7,8-dihydropteridin-6(5H)-one], under “Homo sapiens, COLO 205, 5 h”, the IC50 is < 300 nM. On to `CO[C@H](C)[C@H]1C(=O)Nc2c(C)nc(N[C@H]3C[C@H](Oc4cnc(C(F)(F)F)nc4)C3)nc2N1C` [Compound 657, (S)-7-((R)—1-methoxyethyl)-4,8-dimethyl-2-((trans-3-((2-(trifluoromethyl)pyrimidin-5-yl)oxy)cyclobutyl)amino)-7,8-dihydropteridin-6(5H)-one], for which the IC50 (Homo sapiens, COLO 205, 5 h) is < 300 nM.

Turning to `CO[C@H](C)[C@H]1C(=O)Nc2c(C)nc(NCc3cnn(Cc4cc(F)c(F)c(F)c4)c3)nc2N1C` [Compound 659, (S)-7-((R)-1-methoxyethyl)-4,8-dimethyl-2-(((1-(3,4,5-trifluorobenzyl)-1H-pyrazol-4-yl)methyl)amino)-7,8-dihydropteridin-6(5H)-one], the IC50 (Homo sapiens, COLO 205, 5 h) was < 300 nM. Consider `Cc1nc(N[C@H]2C[C@@H](Cc3nc(C(F)(F)F)no3)C2)nc2c1NC(=O)[C@H](C(C)C)N2C` [Compound 660, (S)-7-isopropyl-4,8-dimethyl-2-(((1s,3R)-3-((3-(trifluoromethyl)-1,2,4-oxadiazol-5-yl)methyl)cyclobutyl)amino)-7,8-dihydropteridin-6(5H)-one], for which the IC50 is < 300 nM. Consider `COC1(C2C(=O)Nc3c(C)nc(NCc4cnn(Cc5ccc(C(F)(F)F)nc5)c4)nc3N2C)CCC1` (stereo not drawn) [Compound 661, 7-(1-methoxycyclobutyl)-4,8-dimethyl-2-(((1-((6-(trifluoromethyl)pyridin-3-yl)methyl)-1H-pyrazol-4-yl)methyl)amino)-7,8-dihydropteridin-6(5H)-one], for which the IC50 (Homo sapiens, COLO 205, 5 h) was < 300 nM. As to `Cc1nc(NCc2cnn(Cc3ccc(C(F)(F)F)nc3)c2)nc2c1NC(=O)C1(CCOC1)N2C` (stereo not drawn) [Compound 662, 4′,8′-dimethyl-2′-(((1-((6-(trifluoromethyl)pyridin-3-yl)methyl)-1H-pyrazol-4-yl)methyl)amino)-4,5,5′,8′-tetrahydro-2H,6′H-spiro[furan-3,7′-pteridin]-6′-one], the IC50 was 300 to 1000 nM.

For `Cc1nc(NCc2cnn(Cc3ccc(C(F)(F)F)nc3)c2)nc2c1NC(=O)C1(CCOC1)N2C` (stereo not drawn) [Compound 663, 4′,8′-dimethyl-2′-(((1-((6-(trifluoromethyl)pyridin-3-yl)methyl)-1H-pyrazol-4-yl)methyl)amino)-4,5,5′,8′-tetrahydro-2H,6′H-spiro[furan-3,7′-pteridin]-6′-one], the IC50 fell in the range of 1000 to 5000 nM. Same read-out and setting: the figure for `CO[C@H](C)[C@H]1C(=O)Nc2c(C)nc(N[C@H]3C[C@@H](Cc4nc(C(F)(F)F)no4)C3)nc2N1C` [Compound 664, (S)-7-((R)-1-methoxyethyl)-4,8-dimethyl-2-(((1s,3R)-3-((3-(trifluoromethyl)-1,2,4-oxadiazol-5-yl)methyl)cyclobutyl)amino)-7,8-dihydropteridin-6(5H)-one] is 300 to 1000 nM.

Regarding `COC1(C2C(=O)Nc3c(C)nc(NCc4cnn(Cc5ccc(C(F)(F)F)nc5)c4)nc3N2C)CC1` (stereo not drawn) [Compound 665, 7-(1-methoxycyclopropyl)-4,8-dimethyl-2-(((1-((6-(trifluoromethyl)pyridin-3-yl)methyl)-1H-pyrazol-4-yl)methyl)amino)-7,8-dihydropteridin-6(5H)-one], the IC50 (Homo sapiens, COLO 205, 5 h) is 300 to 1000 nM.

As for `COC1(C2C(=O)Nc3c(C)nc(NCc4cnn(Cc5cc(C(F)(F)F)nn5C)c4)nc3N2C)CC1` (stereo not drawn) [Compound 666, 7-(1-methoxycyclopropyl)-4,8-dimethyl-2-(((1-((1-methyl-3-(trifluoromethyl)-1H-pyrazol-5-yl)methyl)-1H-pyrazol-4-yl)methyl)amino)-7,8-dihydropteridin-6(511)-one], the IC50 lay in the range of 300 to 1000 nM.

On to `COC1(C2C(=O)Nc3c(C)nc(NCc4cnn(Cc5cc(F)c(F)c(F)c5)c4)nc3N2C)CCC1` (stereo not drawn) [Compound 668, 7-(1-methoxycyclobutyl)-4,8-dimethyl-2-(((1-(3,4,5-trifluorobenzyl)-1H-pyrazol-4-yl)methyl)amino)-7,8-dihydropteridin-6(5H)-one], for which, under “Homo sapiens, COLO 205, 5 h”, the IC50 is < 300 nM.

In the case of `COC1(C2C(=O)Nc3c(C)nc(NCc4cnn(Cc5cc(C(F)(F)F)nn5C)c4)nc3N2C)CCC1` (stereo not drawn) [Compound 670, 7-(1-methoxycyclobutyl)-4,8-dimethyl-2-(((1-((1-methyl-3-(trifluoromethyl)-1H-pyrazol-5-yl)methyl)-1H-pyrazol-4-yl)methyl)amino)-7,8-dihydropteridin-6(5H)-one], the IC50 (Homo sapiens, COLO 205, 5 h) is < 300 nM. For the molecule `Cc1nc(N[C@H]2C[C@H](n3nccc3C(F)(F)F)C2)nc2c1NC(=O)[C@H](C(C)C)N2C` [Compound 673, (7S)-7-isopropyl-4,8-dimethyl-2-((trans-3-(5-(trifluoromethyl)-1H-pyrazol-1-yl)cyclobutyl)amino)-7,8-dihydropteridin-6(5H)-one], the IC50 (Homo sapiens, COLO 205, 5 h) lay in the range of 300 to 1000 nM. Consider `Cc1nc(N[C@H]2C[C@H](Oc3cc(F)c(F)c(F)c3)C2)nc2c1NC(=O)[C@H](COC(C)(C)C)N2C` [Compound 674, (S)-7-(tert-butoxymethyl)-4,8-dimethyl-2-((trans-3-(3,4,5-trifluorophenoxy)cyclobutyl)amino)-7,8-dihydropteridin-6(5H)-one], for which, under “Homo sapiens, COLO 205, 5 h”, the IC50 was < 300 nM. Turning to `COC1(C2C(=O)Nc3c(C)nc(NC4CN(C(=O)c5cc(F)c(F)c(F)c5)C4)nc3N2C)CCC1` (stereo not drawn) [Compound 675, 7-(1-methoxycyclobutyl)-4,8-dimethyl-2-((1-(3,4,5-trifluorobenzoyl)azetidin-3-yl)amino)-7,8-dihydropteridin-6(5H)-one], where the note is “Homo sapiens, COLO 205, 5 h”, the IC50 was 300 to 1000 nM. As to `Cc1nc(N[C@H]2C[C@@H](Cn3cncc3C(F)(F)F)C2)nc2c1NC(=O)[C@H](C(C)C)N2C` [Compound 679, (S)-7-isopropyl-4,8-dimethyl-2-((cis-3-((5-(trifluoromethyl)-1H-imidazol-1-yl)methyl)cyclobutyl)amino)-7,8-dihydropteridin-6(5H)-one], the IC50 (Homo sapiens, COLO 205, 5 h) was 300 to 1000 nM. As for `Cc1nc(N[C@H]2C[C@@H](Cn3cnc(C(F)(F)F)c3)C2)nc2c1NC(=O)[C@H](C(C)C)N2C` [Compound 680, (S)-7-isopropyl-4,8-dimethyl-2-((cis-3-((4-(trifluoromethyl)-1H-imidazol-1-yl)methyl)cyclobutyl)amino)-7,8-dihydropteridin-6(5H)-one], the concentration for half-maximal inhibition (IC50) (Homo sapiens, COLO 205, 5 h) is 300 to 1000 nM. As for `CO[C@H](C)[C@H]1C(=O)Nc2c(C)nc(N[C@H]3C[C@H](N(C)c4cnc(C(F)(F)F)cn4)C3)nc2N1C` [Compound 681, (S)-7-((R)-1-methoxyethyl)-4,8-dimethyl-2-((trans-3-(methyl(5-(trifluoromethyl)pyrazin-2-yl)amino)cyclobutyl)amino)-7,8-dihydropteridin-6(5H)-one], the IC50 (Homo sapiens, COLO 205, 5 h) lay within 300 to 1000 nM. Same read-out and setting: the figure for `CC[C@H]1C(=O)Nc2c(C)nc(N[C@H]3C[C@H](N(C)c4cnc(C(F)(F)F)cn4)C3)nc2N1C` [Compound 682, (S)-7-ethyl-4,8-dimethyl-2-((trans-3-(methyl(5-(trifluoromethyl)pyrazin-2-yl)amino)cyclobutyl)amino)-7,8-dihydropteridin-6(5H)-one] is < 300 nM. In the case of `Cc1nc(N[C@H]2C[C@H](N(C)c3cnc(C(F)(F)F)cn3)C2)nc2c1NC(=O)[C@H](C)N2C` [Compound 683, (S)-4,7,8-trimethyl-2-((trans-3-(methyl(5-(trifluoromethyl)pyrazin-2-yl)amino)cyclobutyl)amino)-7,8-dihydropteridin-6(5H)-one], the IC50 (Homo sapiens, COLO 205, 5 h) was in the range of 300 to 1000 nM. Take `Cc1nc(N[C@H]2C[C@@H](Cn3ccc(C(F)(F)F)n3)C2)nc2c1NC(=O)[C@H](C(C)C)N2C` [Compound 690, (S)-7-isopropyl-4,8-dimethyl-2-((cis-3-((3-(trifluoromethyl)-1H-pyrazol-1-yl)methyl)cyclobutyl)amino)-7,8-dihydropteridin-6(5H)-one]: under “Homo sapiens, COLO 205, 5 h”, the IC50 was < 300 nM. Same read-out and setting: to `CO[C@H](C)[C@H]1C(=O)Nc2c(C)nc(N[C@H]3C[C@@H](Cn4ccc(C(F)(F)F)n4)C3)nc2N1C` [Compound 691, (S)-7-((R)-1-methoxyethyl)-4,8-dimethyl-2-((cis-3-((3-(trifluoromethyl)-1H-pyrazol-1-yl)methyl)cyclobutyl)amino)-7,8-dihydropteridin-6(5H)-one] belongs < 300 nM; to `CC[C@H]1C(=O)Nc2c(C)nc(N[C@H]3C[C@@H](Cn4ccc(C(F)(F)F)n4)C3)nc2N1C` [Compound 692, (S)-7-ethyl-4,8-dimethyl-2-((cis-3-((3-(trifluoromethyl)-1H-pyrazol-1-yl)methyl)cyclobutyl)amino)-7,8-dihydropteridin-6(5H)-one], 300 to 1000 nM; to `Cc1nc(N[C@H]2C[C@@H](COc3ccnn3C)C2)nc2c1NC(=O)[C@H](C(C)C)N2C` [Compound 693, (S)-7-isopropyl-4,8-dimethyl-2-((cis-3-(((1-methyl-1H-pyrazol-5-yl)oxy)methyl)cyclobutyl)amino)-7,8-dihydropteridin-6(5H)-one], ≥ 5000 nM. The same measure, in the same setting: to `Cc1nc(N[C@H]2C[C@@H](COc3cnc(C#N)c(F)c3)C2)nc2c1NC(=O)[C@H](C(C)C)N2C` [Compound 694, 3-fluoro-5-((cis-3-(((S)-7-isopropyl-4,8-dimethyl-6-oxo-5,6,7,8-tetrahydropteridin-2-yl)amino)cyclobutyl)methoxy)picolinonitrile] belongs < 300 nM.
